Assays:
[1] = system: E. coli S30 extract (bacterial protein synthesis); experiment: E. coli S30 extract coupled transcription-translation luciferase assay (inhibition of bacterial protein synthesis); assay type: biochemical; conditions: class by IC50 or % inhibition @ 1 μM, read-out: S30 IC50 (μM/% inhib.)
Summary of the method: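 Luminescent read-out of luciferase made from pBESTluc DNA by E. coli S30 extract after 1 h at 37 °C with compound in an 8-point 2-fold series. Background came from no-DNA reactions. Percent inhibition was calculated against water-only controls.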

[2] = target: Rabbit Reticulocyte Lysate (eukaryotic protein synthesis); experiment: Rabbit reticulocyte lysate luciferase assay (inhibition of eukaryotic protein synthesis); assay type: biochemical; conditions: class by IC50 or % inhibition @ 1 μM, read-out: Rabbit reticulocyte IC50 (μM/% inhib.)
Summary of the method: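 Compounds were tested in 8-point 2-fold dilution series for blocking luciferase synthesis in nuclease-treated rabbit reticulocyte lysate (30° C., 90 minutes). Luminescence read-out, corrected by no-RNA background, was expressed as % inhibition against water-only reactions.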

[3] = system: A. baumannii (Ab); experiment: Broth microdilution minimum inhibitory concentration (MIC); assay type: cell-based; conditions: Acinetobacter baumannii; A. baumannii; growth medium supplemented with sodium bicarbonate; read-out: Ab + bicarb MIC
Summary of the method: (§1)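 Two-fold compound series, 8 points in triplicate; medium CAMHB ± NaHCO3 (6.25 or 25 mM final) or ± 0–50% heat-inactivated human serum; inoculum 5×10^4 CFU/well; growth-method 0.5 McFarland suspensions; modified CLSI M07-A9.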

[4] = system: E. coli (Ec); experiment: as above; assay type: cell-based; conditions: Escherichia coli, E. coli; growth medium supplemented with sodium bicarbonate; read-out: E. coli + bicarb MIC
Summary of the method: as §1

[5] = system: E. faecalis (Ef); experiment: as above; assay type: cell-based; conditions: Enterococcus faecalis, E. faecalis; growth medium supplemented with sodium bicarbonate; read-out: Ef + bicarb MIC
Summary of the method: as §1

[6] = system: P. aeruginosa (Pa); experiment: as above; assay type: cell-based; conditions: Pseudomonas aeruginosa, P. aeruginosa; growth medium supplemented with sodium bicarbonate; read-out: Pa MIC + bicarb
Summary of the method: as §1

[7] = system: S. aureus (Sa); experiment: as above; assay type: cell-based; conditions: Staphylococcus aureus, S. aureus; growth medium supplemented with sodium bicarbonate; read-out: Sa + bicarb MIC
Summary of the method: as §1

Compound | IC50 [1] [µM] | IC50 [2] [µM] | MIC [3] [µg/mL] | MIC [4] [µg/mL] | MIC [5] [µg/mL] | MIC [6] [µg/mL] | MIC [7] [µg/mL]
CC(C)(N)C(=O)N1CCN(C(=O)Nc2ccn(-c3ccc(CN[C@H]4CC[C@H](N)C4)cc3)c(=O)n2)CC1 [Compound 123] | < 0.5 | > 1 | > 32 | < 8 | > 32 | > 32 | < 8
CN(Cc1ccc(-n2ccc(NC(=O)N3CCN(C(=O)C(C)(C)N)CC3)nc2=O)cc1)[C@H]1CC[C@H](N)C1 [Compound 124] | < 0.5 | > 1 | > 32 | < 8 | < 8 | > 32 | < 8
CCN(Cc1ccc(-n2ccc(NC(=O)N3CCN(C(=O)C(C)(C)N)CC3)nc2=O)cc1)[C@H]1CC[C@H](N)C1 [Compound 125] | < 0.5 | > 1 | > 32 | < 8 | < 8 | > 32 | < 8
CC(C)(N)C(=O)N1CCN(C(=O)Nc2ccn(-c3ccc(CNCC4CC(N)C4)cc3)c(=O)n2)CC1 (stereo not drawn) [Compound 126] | < 0.5 | > 1 | > 32 | < 8 | > 32 | > 32 | 8 to 32
CN(Cc1ccc(-n2ccc(NC(=O)N3CCN(C(=O)C(C)(C)N)CC3)nc2=O)cc1)CC1CC(N)C1 (stereo not drawn) [Compound 127] | < 0.5 | > 1 | > 32 | < 8 | < 8 | > 32 | < 8
CCN(Cc1ccc(-n2ccc(NC(=O)N3CCN(C(=O)C(C)(C)N)CC3)nc2=O)cc1)CC1CC(N)C1 (stereo not drawn) [Compound 128] | < 0.5 | > 1 | > 32 | < 8 | < 8 | 8 to 32 | < 8
CC(C)CN(Cc1ccc(-n2ccc(NC(=O)N3CCN(C(=O)C(C)(C)N)CC3)nc2=O)cc1)[C@H]1CC[C@H](N)CC1 [Compound 129] | < 0.5 | > 1 | < 8 | < 8 | < 8 | 8 to 32 | < 8
CC(C)(N)C(=O)N1CCN(C(=O)Nc2ccn(-c3ccc(CN(CC4CC4)[C@H]4CC[C@H](N)CC4)cc3)c(=O)n2)CC1 [Compound 130] | < 0.5 | > 1 | 8 to 32 | < 8 | < 8 | 8 to 32 | < 8
CCCN(Cc1ccc(-n2ccc(NC(=O)N3CCN(C(=O)C(C)(C)N)CC3)nc2=O)cc1)[C@H]1CC[C@H](N)CC1 [Compound 131] | < 0.5 | > 1 | < 8 | < 8 | < 8 | 8 to 32 | < 8
CC(C)(N)C(=O)N1CCN(C(=O)Nc2ccn(-c3ccc(CN(CCO)[C@H]4CC[C@H](N)CC4)cc3)c(=O)n2)CC1 [Compound 132] | < 0.5 | > 1 | > 32 | < 8 | > 32 | > 32 | < 8
C[C@](N)(CO)C(=O)N1CCN(C(=O)Nc2ccn(-c3ccc(CN4CC(CCN)C4)cc3)c(=O)n2)CC1 [Compound 136] | < 0.5 | > 1 | > 32 | 8 to 32 | 8 to 32 | > 32 | 8 to 32
CC(C)(N)C(=O)N1CCN(C(=O)Nc2ccn(-c3ccc(CN4CC(O)(CN)C4)cc3)c(=O)n2)CC1 [Compound 137] | < 0.5 | > 1 | > 32 | < 8 | > 32 | > 32 | 8 to 32
CC(C)(N)C(=O)N1CCN(C(=O)Nc2ccn(-c3ccc(CN(CCF)[C@H]4CC[C@H](N)CC4)cc3)c(=O)n2)CC1 [Compound 138] | 0.5 to 1 | > 1 | > 32 | < 8 | > 32 | > 32 | < 8
Cc1cc(-n2ccc(NC(=O)N3CCN(C(=O)[C@@](C)(N)CO)CC3)nc2=O)ccc1CCN1CCCC(N)CC1 (stereo partly drawn) [Compound 139] | < 0.5 | > 1 | > 32 | < 8 | < 8 | 8 to 32 | < 8
Cc1cc(-n2ccc(NC(=O)N3CCN(C(=O)C(C)(C)N)CC3)nc2=O)ccc1CCN1CCCC(N)CC1 (stereo not drawn) [Compound 140] | < 0.5 | > 1 | 8 to 32 | < 8 | < 8 | 8 to 32 | < 8

Reference: US12503452B2 (Curza Global, LLC, priority 2019, dated 2025)
